In US20220411785A1, “LIBRARY OF BARCODED EXTRACELLULAR VESICLES” (The University of Tokyo, priority 2019, published 2022):

System: HEK293T cells expressing CD63-nanoLuc
Assay: EV secretion level after GSK-A1 (nanoLuc luminescence assay / nanoparticle tracking analysis)
Format: cell-based
Conditions: addition of GSK-A1; control without GSK-A1 set as 1; nluc activity in culture supernatant or NTA
Method: A PI4KA inhibitor, GSK-A1, was administered to HEK293T cells expressing CD63-nanoLuc (pDB30), and the amount of secreted extracellular vesicles was measured by luminescence assay (Promega Corporation, Nanoglo luciferase assay system) that measures the nluc activity in a culture supernatant or by nanoparticle tracking analysis (NTA) using Nanosight (Malvern Panalytical Ltd.). As a control, the same experiment was performed without administering GSK-A1, and the EV secretion level at each GSK-A1 concentration was calculated by setting the EV secretion level of the control as 1.

COc1ncc(-c2ccc3nc(N)n(-c4ccc(N5CCOCC5)cc4)c3c2)cc1S(=O)(=O)Nc1ccccc1F [GSK-A1, 5-(2-amino-1-(4-morpholinophenyl)-1H-benzo[d]imidazol-6-yl)-N-(2-fluorophenyl)-2-methoxypyridine-3-sulfonamide]
secretion level of a CD63 positive extracellular vesicle: increased
